Measured values taken from patent publication US9937250B2, “Immunogenic tumor associated stromal cell antigen peptides and methods of their use” (University of Pittsburgh—Of the Commonwealth System of …, priority 2011, dated 2018).
Where no end group is shown, it is not given here.

Key:
[1] = test system: MC38 colon carcinoma; assay: MC38 protection (prophylactic vaccination) model; type: in vivo, HHD mice; design: key to Anti-tumor efficacy in MC38 protection model: +/-, p < 0.05 versus DC only for 2 consecutive time points; - not significant at any time point analyzed; details: for Protection against HLA-A2neg MC38 tumor challenge: immunization days -14 and -7, tumor challenge day 0 (FIG. 9B); for Anti-tumor efficacy in MC38 protection model: DC.IL12 pulsed with a pool of 1 or more peptides derived from the indicated TBVA, vaccination d-14, d-7
Description: FIGS. 9A-9B show a series of graphs illustrating induction of specific/protective CD8^+ T cells reactive against TASA as a consequence of DC/peptide-based vaccination. In FIG. 9A, HHD mice (five animals/cohort) were vaccinated twice (d-14, d-7) subcutaneously with PBS or with isologous DC.IL12 pulsed with PBS or synthetic peptides (Table 6) derived from the indicated TASA. In cases where more than 1 peptide was identified for a given target antigen, an equimolar pool of the indicated peptides (each 10 μM) was pulsed onto DC.IL12 and used for vaccination in the relevant cohort. One week after the second immunization, spleens were harvested and splenic CD8^+ T cells isolated using MACS-beads (Miltenyi). T cells were stimulated in vitro for 48 h using the HLA-A2^+ T2 cell line pulsed with relevant TASA vs. irrelevant HIV-nef190-198 ([…]; ref. 24) peptides. Cell-free supernatants were then recovered and IFN-γ levels by ELISA. Data are reported as mean+/−SD for triplicate ELISA determinations, and are representative of 3 independent experiments performed. *p<0.05 vs. HIV-nef control peptide responses. In FIG. 9B, HHD mice were vaccinated twice (days −14 and −7; right flank) subcutaneously with PBS or with isologous DC.IL12 pulsed with PBS or synthetic TASA peptides as indicated in FIG. 1A. In cases where more than 1 peptide is identified for a given target antigen, an equimolar pool of the indicated peptides (each 10 μM) was pulsed onto DC.IL12 and used for vaccination in the relevant cohort. One week after the booster vaccine (i.e. day zero), animals were challenged subcutaneously on their left flank with 2×10^6 MC38 colon carcinoma cells. Tumor growth was then monitored every 3-4 days through day 24. All data represent mean tumor area (in mm^2)+/−SD determined from 5 mice/cohort, and are representative of three independent experiments performed. *p<0.05 versus DC only on the indicated days.
Vaccine Experiments. For prophylactic experiments, HHD mice were immunized subcutaneously on the right flank with 100 μl PBS or PBS containing 10^6 syngenic DC.IL12 cells that had been untreated or pre-pulsed for 4 h at 37° C. with 10 μM synthetic peptide(s). Immunizations occurred on days −14 and −7, with mice subsequently receiving injections of MC38 (2×10^6) tumor cells in the left flank on d0. In all cases, treatment groups contained 5 mice per cohort. For analysis of tumor cellular composition in repeat experiments, MC38 tumors were isolated by surgical resection 10 days after tumor inoculation and prepared for fluorescence imaging, as described below. […] Mice were then untreated or treated with control, syngenic DC.IL12 or DC.IL12 (10^6 cells injected subcutaneously in the left flank on days 7 and 14) pulsed with synthetic TBVA peptides. In some assays, as indicated, in vivo antibody depletions (on days 6, 13 and 20 post-tumor inoculation to assess early involvement or on days 60 and 67 or 180 and 187 to assess late involvement) of protective CD4^+ T cells or CD8^+ T cells were performed and monitored as previously described (Zhao et al., Mol Ther., 19:805-814, 2011). In all cases, tumor size (area) was monitored every 3-4 days and is reported as mean+/−SD in mm^2.
The DLK1, EphA2, HBB, NG2, NRP1, NRP2, PDGFRβ, PSMA, RGS5, TEM1, VEGFR1 and VEGFR2 antigens were expressed in situ by blood vessel cells in the MC38 colon carcinoma TME (FIG. 14). Protection of HHD mice against a challenge with HLA-A2^neg MC38 tumor cells injected subcutaneously on day zero was assayed with immunization with TBVA-derived peptides on days −14 and −7. […]

[2] = test system: CD8+ T cells from HLA-A2+ normal donors or HLA-A2+ melanoma patients; assay: In vitro sensitization of human CD8+ T cells with TASA peptide-pulsed autologous DC, IFN-γ ELISA against peptide-pulsed T2 cells; type: cell-based
Method: The indicated peptides were pulsed onto autologous DC and used to prime and boost CD8^+ T cells isolated from the peripheral blood of eight normal HLA-A2^+ donors or ten HLA-A2^+ patients with melanoma. Seven days after the primary in vitro sensitization (IVS) (melanoma patients) or a secondary IVS boost (normal donors), T cells were analyzed for their reactivity against HLA-A2^+ T2 cells pulsed with the relevant peptide vs. the negative control HIV-nef190-198 peptide. After 24 hours of co-culture, cell-free supernatants were analyzed for levels of secreted IFN-γ using a commercial ELISA. Data are reported in Bar and Whisker plots, with p-values provided for paired pre- versus post-IVS data from normal donors and patients. In addition, p<0.05 was detected for MEL-Post versus ND-Post for the following peptides: DLK1 (309), NG2 (770), NG2 (2238), PDGFRβ (891) and RGS5 (5).
In vitro assessment of human CD8^+ T cell responses against TASA- or TAA-derived peptides. Peripheral blood mononuclear cells (PBMC) were obtained by venipuncture or leukapheresis from HLA-A2^+ normal donors or HLA-A2^+ melanoma patients with written consent under IRB-approved protocols (Table 3). CD8^+ T cells were then isolated by MACS (Miltenyi Biotec, Auburn, Calif.) and either not stimulated or stimulated with autologous, TASA peptide-pulsed DC as previously described (Tatsumi et al., Cancer Res., 63:4481-4489, 2003). Normal donor T cells were stimulated with TASA peptide-pulsed DC twice on a weekly schedule, with responder T cells harvested for analysis of their specificity 5 days after the booster stimulation (i.e. day 12 of T cell-DC co-culture). Melanoma patient CD8^+ T cells were analyzed after a single round of stimulation with TASA peptide-pulsed, autologous DC (i.e. day 5 of T cell-DC co-culture) as indicated. For DC-based stimulations, DC were pulsed with an equimolar (1 μM each) pool of the TASA peptides (Table 4) for 4 h at 37° C. at 5% CO2 tension. These antigen-loaded DC were then used to stimulate autologous CD8^+ T cells at a T cell-to-DC ratio of 10:1 to generate a bulk population of responder T cells. T cells were maintained in IMDM media supplemented with 10% human AB serum, 100 U/ml penicillin, […], 10 mM L-glutamine and MEM non-essential amino acids (all reagents from Invitrogen, except human AB serum that was purchased from Sigma-Aldrich, St. Louis, Mo.). Responder CD8^+ T cells were analyzed for reactivity against control (HLA-A2^+) T2 cells or T2 cells pulsed with individual TASA or TAA peptides (1 μM for 4 h at 37° C.) at a CD8^+ T cell-to-T2 cell ratio of 5:1 for 24 h. Harvested cell-free supernatants were consequently assessed for hIFN-γ content using a specific ELISA (BD Biosciences, San Diego, Calif.) with a lower detection limit of 4.7 pg/ml.
CD8^+ T cells from HLA-A2^+ normal donors or HLA-A2^+ melanoma patients recognize TASA-derived peptides in vitro. To assess whether the TASA-derived peptides identified in the HHD tumor model were also capable of being recognized by human CD8^+ T cells, IVS was performed using T cells isolated from the peripheral blood of HLA-A2^+ donors or HLA-A2^+ patients with melanoma. DC were pulsed with peptides derived from a given TASA for 4 h at 37° C., then washed and used as stimulator cells for autologous CD8^+ T cells. In cases where more than one peptide existed for a given protein, DC were pulsed with an equimolar (10 μM) mixture of each peptide. Two rounds of IVS using TASA for normal donors and a single-round of IVS using TASA for melanoma patients was applied. HLA-A2^+ normal donors (FIG. 4; Tables 4, 5A and 5B) and melanoma patients (FIG. 4; Tables 4, 5A and 5B) were each capable of recognizing many of the TASA-derived peptides.

| Substance | Protection against HLA-A2neg MC38 tumor challenge [1] | Specific CD8+ T cell Production of IFN-γ in Response to TASA ([2]; donor Mel8, melanoma patient) | Specific CD8+ T cell Production of IFN-γ in Response to TASA ([2]; donor ND2, normal donor) | Specific CD8+ T cell Production of IFN-γ in Response to TASA ([2]; donor ND4, normal donor) | Anti-tumor efficacy in MC38 protection model [1] | Specific CD8+ T cell Production of IFN-γ in Response to TASA ([2]; donor Mel1, melanoma patient) | Specific CD8+ T cell Production of IFN-γ in Response to TASA ([2]; donor Mel2, melanoma patient) | Specific CD8+ T cell Production of IFN-γ in Response to TASA ([2]; donor Mel4, melanoma patient) | Specific CD8+ T cell Production of IFN-γ in Response to TASA ([2]; donor Mel5, melanoma patient) | Specific CD8+ T cell Production of IFN-γ in Response to TASA ([2]; donor Mel6, melanoma patient) | Specific CD8+ T cell Production of IFN-γ in Response to TASA ([2]; donor Mel7, melanoma patient) | Specific CD8+ T cell Production of IFN-γ in Response to TASA ([2]; donor ND5, normal donor) |
| --- | --- | --- | --- | --- | --- | --- | --- | --- | --- | --- | --- | --- |
| PDGFRβ: PDGFRβ-derived peptide 890-898 pulsed onto DC or DC.IL12 (ILLWEIFTL; listed as Homo sapiens) | effective in preventing HLA-A2^neg MC38 tumor establishment or they resulted in the regression of tumors | + (Human responses were designated as + if T cell reactivity against T2 cells presenting the indicated peptide (IFN-γ ELISA) was >30 pg/ml and more than 2 fold higher than reactivity versus T2 cells pulsed with the negative control HIV-nef190-198 peptide) | + (Human responses were designated as + if T cell reactivity against T2 cells presenting the indicated peptide (IFN-γ ELISA) was >30 pg/ml and more than 2 fold higher than reactivity versus T2 cells pulsed with the negative control HIV-nef190-198 peptide) | + (Human responses were designated as + if T cell reactivity against T2 cells presenting the indicated peptide (IFN-γ ELISA) was >30 pg/ml and more than 2 fold higher than reactivity versus T2 cells pulsed with the negative control HIV-nef190-198 peptide) |  |  |  |  |  |  |  |  |
| NRP2: equimolar pool of the three NRP2-derived peptides (214-222, 328-336, 436-444), pulsed onto DC or DC.IL12 (chain 1 DIWDGIPHV; chain 2 YLQVDLRFL; chain 3 NMLGMLSGL; also: equimolar pool of three peptides; listed as Homo sapiens) | minimal protection |  |  |  | - | + (Human responses were designated as + if T cell reactivity against T2 cells presenting the indicated peptide (IFN-γ ELISA) was >30 pg/ml and more than 2 fold higher than reactivity versus T2 cells pulsed with the negative control HIV-nef190-198 peptide) | + (Human responses were designated as + if T cell reactivity against T2 cells presenting the indicated peptide (IFN-γ ELISA) was >30 pg/ml and more than 2 fold higher than reactivity versus T2 cells pulsed with the negative control HIV-nef190-198 peptide) | + (Human responses were designated as + if T cell reactivity against T2 cells presenting the indicated peptide (IFN-γ ELISA) was >30 pg/ml and more than 2 fold higher than reactivity versus T2 cells pulsed with the negative control HIV-nef190-198 peptide) | + (Human responses were designated as + if T cell reactivity against T2 cells presenting the indicated peptide (IFN-γ ELISA) was >30 pg/ml and more than 2 fold higher than reactivity versus T2 cells pulsed with the negative control HIV-nef190-198 peptide) |  |  |  |
| VEGFR1: VEGFR1-derived peptide 770-778 pulsed onto DC or DC.IL12 (TLFWLLLTL; listed as Homo sapiens) | minimal protection |  |  |  | +/- (+/-, p < 0.05 versus DC only for 2 consecutive time points) |  |  | + (Human responses were designated as + if T cell reactivity against T2 cells presenting the indicated peptide (IFN-γ ELISA) was >30 pg/ml and more than 2 fold higher than reactivity versus T2 cells pulsed with the negative control HIV-nef190-198 peptide) |  | + (Human responses were designated as + if T cell reactivity against T2 cells presenting the indicated peptide (IFN-γ ELISA) was >30 pg/ml and more than 2 fold higher than reactivity versus T2 cells pulsed with the negative control HIV-nef190-198 peptide) | + (Human responses were designated as + if T cell reactivity against T2 cells presenting the indicated peptide (IFN-γ ELISA) was >30 pg/ml and more than 2 fold higher than reactivity versus T2 cells pulsed with the negative control HIV-nef190-198 peptide) | + (Human responses were designated as + if T cell reactivity against T2 cells presenting the indicated peptide (IFN-γ ELISA) was >30 pg/ml and more than 2 fold higher than reactivity versus T2 cells pulsed with the negative control HIV-nef190-198 peptide) |
| PSMA: PSMA-derived peptide 441-450 pulsed onto DC or DC.IL12 (LLQERGVAYI; listed as Homo sapiens) | minimal protection |  |  |  | - |  |  | + (Human responses were designated as + if T cell reactivity against T2 cells presenting the indicated peptide (IFN-γ ELISA) was >30 pg/ml and more than 2 fold higher than reactivity versus T2 cells pulsed with the negative control HIV-nef190-198 peptide) |  | + (Human responses were designated as + if T cell reactivity against T2 cells presenting the indicated peptide (IFN-γ ELISA) was >30 pg/ml and more than 2 fold higher than reactivity versus T2 cells pulsed with the negative control HIV-nef190-198 peptide) |  |  |
